Data: publication PMC12276038, “Impact of Chelation on Reactivity and Cytotoxicity of Hemilabile Biphenyl Gold(III) N‐Heterocyclic Carbene Complexes” (Chemmedchem, 2025)

Legend:
[1] = test system: HeLa cells; experiment: Resazurin cell proliferation assay on HeLa cells; type: cell-based, human; settings: 72 h incubation
Source text: All new 16 BGC compounds were screened against HeLa cells (cervical adenocarcinoma) to assess their antiproliferative activity through a resazurin cell viability assay.^[ [49] ^] The dose‐response curves were then fitted by a 4‐parameter sigmoid function to extract the median effective concentrations (EC50) shown in Figure 7 .
(§1) HeLa and MDA‐MB‐231 cells were cultivated in DMEM GlutaMax High Glucose supplemented with 10 vol% fetal bovine serum (FBS) and 1 vol% penicillin/streptomycin (50 U/mL and 50 μg/mL respectively). Huh‐7 cells were cultivated in MEM supplemented with 10 vol% FBS, GlutaMax (2 mM), sodium pyruvate (1 mM), nonessential amino acids mix (0.1 mM), and 1 vol% penicillin/streptomycin. MCF10A cells were cultivated in DMEM:F12 GlutaMax supplemented with 1 vol% penicillin/streptomycin, hEGF (20 ng/mL), hydrocortisone ([…]), cholera toxin (100 ng/mL), insulin (10 μg/mL), and 5 vol% horse serum. These media will be further referred as “Complete media.”
(§2) Stock solutions of the gold complexes (20 mM) were prepared in DMSO and kept at −20 °C. Serial dilutions were performed to obtain a set of 8 concentrations with a 2‐fold geometric progression, and were stored at −20 °C as well.
Cell proliferation assays were performed using resazurin as a viability indicator. Cells were seeded in 96‐well plates (2000 cells/100 μL per well) in the appropriate complete medium and allowed to grow for 24 h. Cells were then treated in triplicate with 8 different concentrations of the complexes, which were added as 100 μL of 2x dilution in culture medium containing no FBS (or containing 5% horse serum for MCF‐10 A cells), thus leading to a 5% concentration of serum in each well. After 72 h incubation, 110 μL of supernatant was removed from each well, and 10 μL of 500 μM resazurin solution (10x) in PBS were added prior to incubating the cells for 2 h. The fluorescence intensity of the reduction product resorufin was measured in each well (540 nm excitation, 590 nm reading), and cellular viability was computed as the fluorescence ratio between sample and DMSO control wells after blank subtraction. The EC50 value was computed by fitting the data with a 4‐parameter sigmoid σ through nonlinear least square regression, where the EC50 value is directly the c parameter. The regression was performed using curve_fit() function scipy.optimize module in python (scripts available^[ [60] ^]). σ(x,a,b,c,d)=d+a−d/1+(x/c)^b

[2] = test system: Huh‐7; experiment: Resazurin cell proliferation assay on Huh-7 cells; type: cell-based, human; settings: Huh‐7, 72 h incubation
Source text: (§3) Considering the equivalent activities for neutral and cationic analogs, only cationic representatives of the BGC12, BGC18, and BGC19 couples were further screened on two other human cancer cell lines including hepatic carcinoma Huh‐7 and “triple negative” breast adenocarcinoma MDA‐MB‐231 and noncancerous epithelial breast cells MCF‐10 A (Table 1 ).
as §1, §2
(§4) Cell proliferation assays were performed using resazurin as a viability indicator. Cells were seeded in 96‐well plates (2000 cells/100 μL per well) in the appropriate complete medium and allowed to grow for 24 h. Cells were then treated in triplicate with 8 different concentrations of the complexes, which were added as 100 μL of 2x dilution in culture medium containing no FBS (or containing 5% horse serum for MCF‐10 A cells), thus leading to a 5% concentration of serum in each well. […] The fluorescence intensity of the reduction product resorufin was measured in each well (540 nm excitation, 590 nm reading), and cellular viability was computed as the fluorescence ratio between sample and DMSO control wells after blank subtraction. […]

[3] = test system: MDA‐MB‐231; experiment: Resazurin cell proliferation assay on MDA-MB-231 cells; type: cell-based, human; settings: MDA‐MB‐231, 72 h incubation
Source text: as §3, §1, §2, §4

[4] = test system: MCF‐10 A; experiment: Resazurin cell proliferation assay on noncancerous MCF-10A cells; type: cell-based, human; settings: MCF‐10 A noncancerous cells, 72 h incubation
Source text: as §3, §1, §2, §4

[5] = Reaction with chloride ions by 1H NMR; type: physicochemical; settings: 1 eq. chloride source, DMSO‐d6/D2O 4/1
Experimental: Reaction with Chloride Ions: 400 μL of freshly prepared gold complex solution in DMSO‐d6 (5 mM) was added to an NMR tube, followed by 4 μL of 0.5 M NaCl in D2O and 96 μL of D2O. Spectra were acquired straight away (t0 reference) prior to transferring the tubes to an oven set at 37 °C for 72 h. Spectra were then acquired periodically during incubation.

[6] = Speciation in DMSO-d6/serum-free DMEM by 1H NMR; type: physicochemical; settings: 3/1 DMSO‐d6/serum‐free DMEM, immediately after mixing (t < 5 min)
Experimental: Speciation in DMEM: NMR spectra were recorded on a Bruker Avance II 300 spectrometer (7 T) operating at a ^1H Larmor frequency of 300.13 MHz with a 5 mm observe broadband probe (QNP) z‐axis (^31P/^19 F/^13C/^1H) at 27 °C.
Solutions of the gold complexes (10 mM) were freshly prepared in DMSO‐d6. Samples were prepared by mixing 200 μL of complex solution with 100 μL (resp. 67 μL) of pure DMSO‐d6 and 100 μL (resp. 133 μL) of DMEM GlutaMax High glucose without FBS. ^1H NMR spectra were acquired immediately after mixing (t < 5 min) using a standard zg30 sequence to determine the resonant frequency of water in the tube. Further spectra were acquired using a cpmg‐esgp1d sequence (pulse program available^[ [60] ^]) which carrier frequency (O1P) was tuned to the water peak maximum to ensure optimal water suppression. The Hahn echo time (D20) was left null to acquire a spectrum without the use of T2‐gating. A particular attention was paid to the shimming process as poor shims result in a broader water signal thus leading to an inefficient water suppression.

[7] = test system: mitochondrial membrane potential of HeLa cells; experiment: Mitochondrial membrane polarization JC-10 endpoint assay; type: cell-based, human; settings: 10 μM, 1 h or 4 h
Experimental: Several gold complexes were previously reported to accumulate in mitochondria^[ [50], [51] ^] or even to disrupt their membrane potential.^[ [27], [52], [53] ^] We therefore investigated the possible antimitochondrial activity of BGC19b, chosen as a representative of the most toxic compounds. Briefly, we incubated HeLa cells with BGC19b (1 h or 4 h) or CCCP (4 h) as positive control and monitored the mitochondrial membrane potential through a JC‐10 endpoint assay.
HeLa cells were seeded in a 96‐well plate (2000 cells in 100 μL complete medium per well) and left to adhere. Cells were then treated in triplicate with gold complexes (addition of 100 μL of 2x complex solution in FBS‐free medium) 4 h and 1 h before reading the plate. A control triplicate was treated with CCCP (10 μM) and incubated for 4 h before reading. One hour before reading, 100 μL of supernatant was withdrawn from each well and replaced with JC‐10 in assay buffer A solution (Abcam, 1x, 50 μL). Cells were incubated with the marker for 1 h, and assay buffer B (50 μL) was added. Mitochondrial membrane potential was assessed by computing the ratio of fluorescence intensities between aggregated (λ ex = 540 nm, λ fluo = 590 nm) and nonaggregated JC‐10 (λ ex = 490 nm, λ fluo = 525 nm). […]

[8] = test system: HeLa cells; experiment: Resazurin viability run in parallel to the JC-10 assay; type: cell-based, human; settings: 10 μM, 1 h and 4 h
[9] = test system: effector caspases 3 and 7 in HeLa cells; experiment: Caspase 3/7 activity and cellular morphology by time lapse videomicroscopy; type: cell-based, human; settings: for Rate of apoptosis induction (caspase activation kinetics): BGC19b 1.7 μM, CCCP 10 μM
Experimental: Apoptosis is a possible outcome of energy shortage in cells following mitochondrial depolarization. We thus monitored the activity of the effector caspases 3 and 7, as a readout of cell apoptosis. The overall cellular morphology was analyzed in parallel.
HeLa cells were seeded in an 8‐well Ibidi slide (4000 cells in 500 μL complete medium per well) and allowed to grow for 24 h. The culture medium was changed to a fresh one (DMEM 5% FBS, 200 μL) containing SiR‐DNA dye (Spirochrome, 1 μM) and CellEvent Caspase 3/7 Green marker (ThermoFisher, 1 μM). […] Cells were monitored for 24 h (20 min step between images) by phase contrast and fluorescence microscopy (Cy5 and EGFP filters for SiR‐DNA and CellEvent Caspase 3/7 markers, respectively). Images were processed using Fiji, and cellular viabilities were extracted as Viability=1−NEGFP/NCy5 where N i denotes the number of cells counted in channel i. Cells were counted in EGFP and Cy5 channels using TrackMate (DoG detector + Simple LAP tracker).^[ [62] ^] The cellular morphology was also manually monitored using the phase contrast channel by tagging cells losing adhesion and displaying blebs.^[ [60] ^]

[10] = Log P determination by reverse-phase HPLC (OECD method); settings: 25% water in acetonitrile (condition B)
[11] = molecules of known Log(k′w) used for calibration; cited from earlier work
[12] = set-up: method as in PMID 29277693; settings: read-out: EC50 of CCCP; cited from earlier work
[13] = Solvolysis / stability in DMSO-d6 and DMSO-d6/D2O by 1H NMR; type: physicochemical; settings: 24 h incubation at 37 °C in DMSO
Experimental: Solvolysis Kinetics: 400 μL of freshly prepared gold complex solution in DMSO‐d6 (5 mM) was transferred to an NMR tube. Spectra were acquired straight away (t0 reference) prior to transferring the tubes to an oven set at 37 °C for 72 h. Spectra were then acquired periodically during incubation. The same procedure was repeated with addition of 100 μL of D2O to each tube.
Solvolysis: A concentrated solution of gold complex (≈40 mM) was prepared in 1 mL DMSO‐d6 mixed with 250 μL of D2O and incubated at 37 °C for 24 h. The solution was then extracted 5 times with 3 mL DCM. The DCM phase was recovered and evaporated thoroughly, and the resulting residue was dissolved in MeCN‐d3 and analyzed by ^1H NMR.

Structure (SMILES): CC(C)(C)c1ccc2[c](c1)[Au-]1([c]3cc(C(C)(C)C)ccc3-2)[c]2n3ccccc3c[n+]2Cc2cccc[n+]21.F[P-](F)(F)(F)(F)F [BGC19b]
- EC50 [1]: 1800 ± 600 nM
- EC50 [2]: 1400 ± 100 nM
- EC50 [3]: 2000 ± 100 nM
- EC50 [4]: 1600 ± 400 nM
- Conversion of cationic to neutral form on addition of chloride [5]: converted back quantitatively and instantaneously
- Species identified in culture medium mixture [6]: only the neutral complexes were identified
- Mitochondrial membrane depolarization [7]: significant mitochondrial membrane depolarization
- Change in cell viability during JC-10 assay [8]: no significant change in cell viability
- Induction period before adhesion loss, blebs and caspase 3/7 activation ([9]; 1.7 μM): around 4 h
- Rate of apoptosis induction (caspase activation kinetics) [9]: induces apoptosis much faster than CCCP
- Log P (cationic b, form) [10]: 4.3

Structure (SMILES): Cc1cc[n+]2c(c1)Cn1cc[n+](C)[c]1[Au-]21[c]2cc(C(C)(C)C)ccc2-c2ccc(C(C)(C)C)c[c]21.F[P-](F)(F)(F)(F)F [BGC14b]
- Log P (cationic b, form) [10]: 4.8

Structure (SMILES): COc1ccccc1 [Anisole]
- log(k’w) of log P standard mix [11]: 2.1

Structure (SMILES): N#CC(C#N)=NNc1cccc(Cl)c1 [CCCP, reference compound]
- Rate of apoptosis induction (caspase activation kinetics) [9]: occurred at a much slower rate compared to BGC19b
- EC50 [12]: 10000 nM

Structure (SMILES): Cc1cccc2[n+]1[Au-]1([c]3cc(C(C)(C)C)ccc3-c3ccc(C(C)(C)C)c[c]31)[c]1n(cc[n+]1C)C2.F[P-](F)(F)(F)(F)F [BGC13b]
- Log P (cationic b, form) [10]: 4.4

Structure (SMILES): C[n+]1[c]2n(c3ccccc31)Cc1cccc[n+]1[Au-]21[c]2cc(C(C)(C)C)ccc2-c2ccc(C(C)(C)C)c[c]21.F[P-](F)(F)(F)(F)F [BGC18b]
- EC50 [1]: 2800 ± 700 nM
- EC50 [2]: 2500 ± 400 nM
- EC50 [3]: 4400 ± 800 nM
- EC50 [4]: 2800 ± 500 nM
- Log P (cationic b, form) [10]: 4.5

Structure (SMILES): C[n+]1ccn2[c]1[Au-]1([c]3cc(C(C)(C)C)ccc3-c3ccc(C(C)(C)C)c[c]31)[n+]1c(ccc3ccccc31)C2.F[P-](F)(F)(F)(F)F [BGC16b]
- EC50 [1]: 3200 ± 300 nM
- Log P (cationic b, form) [10]: 4.5

Structure (SMILES): CCCCCCCCc1ccccc1 [Octylbenzene]
- log(k’w) of log P standard mix [11]: 6.3

Structure (SMILES): COc1cc[n+]2c(c1)Cn1cc[n+](C)[c]1[Au-]21[c]2cc(C(C)(C)C)ccc2-c2ccc(C(C)(C)C)c[c]21.F[P-](F)(F)(F)(F)F [BGC15b]
- Conversion of cationic to neutral form on addition of chloride [5]: converted back quantitatively and instantaneously
- Log P (cationic b, form) [10]: 4.2

Structure (SMILES): c1ccc2ccccc2c1 [Naphtalene]
- log(k’w) of log P standard mix [11]: 3.6

Structure (SMILES): C[n+]1ccn2[c]1[Au-]1([c]3cc(C(C)(C)C)ccc3-c3ccc(C(C)(C)C)c[c]31)[n+]1ccccc1C2.F[P-](F)(F)(F)(F)F [BGC12b]
- EC50 [1]: 1800 ± 100 nM
- EC50 [2]: 1800 ± 100 nM
- EC50 [3]: 2900 ± 100 nM
- EC50 [4]: 1200 ± 300 nM
- Spectra in MeCN‐d3 after incubation in DMSO and extraction in DCM [13]: unchanged
- Conversion of cationic to neutral form on addition of chloride [5]: converted back quantitatively and instantaneously
- Species identified in culture medium mixture [6]: only the neutral complexes were identified
- Log P (cationic b, form) [10]: 3.9

Structure (SMILES): C[n+]1ccn2[c]1[Au-]1([c]3cc(C(C)(C)C)ccc3-c3ccc(C(C)(C)C)c[c]31)[n+]1ccncc1C2.F[P-](F)(F)(F)(F)F [BGC17b]
- Log P (cationic b, form) [10]: 3.5
